ChEMBL document CHEMBL1152164, “The first X-ray crystal structure of the glucocorticoid receptor bound to a non-steroidal agonist” (Bioorg Med Chem Lett, 2008)

Experiments:
Glucocorticoid receptor [1] = target: T1, Glucocorticoid receptor (Homo sapiens, UniProt P04150); test: Binding affinity to glucocorticoid receptor
T1 sequence (P04150 whole entry): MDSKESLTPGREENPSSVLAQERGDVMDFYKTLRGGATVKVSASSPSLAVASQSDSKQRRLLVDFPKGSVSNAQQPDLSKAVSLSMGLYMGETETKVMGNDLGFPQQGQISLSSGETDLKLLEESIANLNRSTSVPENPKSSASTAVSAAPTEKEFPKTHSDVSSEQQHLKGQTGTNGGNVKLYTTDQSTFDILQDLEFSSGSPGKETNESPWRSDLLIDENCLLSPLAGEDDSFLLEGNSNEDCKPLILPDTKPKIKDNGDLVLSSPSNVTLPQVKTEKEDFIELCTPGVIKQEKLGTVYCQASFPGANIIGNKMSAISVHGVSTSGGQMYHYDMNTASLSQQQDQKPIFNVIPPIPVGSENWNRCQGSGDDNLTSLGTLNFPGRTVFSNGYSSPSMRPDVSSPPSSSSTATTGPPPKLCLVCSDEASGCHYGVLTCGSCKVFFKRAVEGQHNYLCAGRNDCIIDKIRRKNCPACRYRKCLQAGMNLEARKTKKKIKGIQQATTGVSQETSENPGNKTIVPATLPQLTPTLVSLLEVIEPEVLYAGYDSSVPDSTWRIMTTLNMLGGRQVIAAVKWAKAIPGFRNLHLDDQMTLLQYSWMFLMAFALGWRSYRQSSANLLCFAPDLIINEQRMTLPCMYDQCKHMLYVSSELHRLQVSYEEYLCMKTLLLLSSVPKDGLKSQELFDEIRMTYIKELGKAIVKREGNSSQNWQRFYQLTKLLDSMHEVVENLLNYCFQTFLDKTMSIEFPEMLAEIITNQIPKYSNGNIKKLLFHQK

Glucocorticoid receptor [2] = target: T1, Glucocorticoid receptor; test: Agonist activity at glucocorticoid receptor by MMTV transactivation assay; format: functional
Androgen receptor = target: T2, Androgen receptor (Homo sapiens, UniProt P10275); test: Binding affinity to androgen receptor
T2 sequence (P10275 whole entry): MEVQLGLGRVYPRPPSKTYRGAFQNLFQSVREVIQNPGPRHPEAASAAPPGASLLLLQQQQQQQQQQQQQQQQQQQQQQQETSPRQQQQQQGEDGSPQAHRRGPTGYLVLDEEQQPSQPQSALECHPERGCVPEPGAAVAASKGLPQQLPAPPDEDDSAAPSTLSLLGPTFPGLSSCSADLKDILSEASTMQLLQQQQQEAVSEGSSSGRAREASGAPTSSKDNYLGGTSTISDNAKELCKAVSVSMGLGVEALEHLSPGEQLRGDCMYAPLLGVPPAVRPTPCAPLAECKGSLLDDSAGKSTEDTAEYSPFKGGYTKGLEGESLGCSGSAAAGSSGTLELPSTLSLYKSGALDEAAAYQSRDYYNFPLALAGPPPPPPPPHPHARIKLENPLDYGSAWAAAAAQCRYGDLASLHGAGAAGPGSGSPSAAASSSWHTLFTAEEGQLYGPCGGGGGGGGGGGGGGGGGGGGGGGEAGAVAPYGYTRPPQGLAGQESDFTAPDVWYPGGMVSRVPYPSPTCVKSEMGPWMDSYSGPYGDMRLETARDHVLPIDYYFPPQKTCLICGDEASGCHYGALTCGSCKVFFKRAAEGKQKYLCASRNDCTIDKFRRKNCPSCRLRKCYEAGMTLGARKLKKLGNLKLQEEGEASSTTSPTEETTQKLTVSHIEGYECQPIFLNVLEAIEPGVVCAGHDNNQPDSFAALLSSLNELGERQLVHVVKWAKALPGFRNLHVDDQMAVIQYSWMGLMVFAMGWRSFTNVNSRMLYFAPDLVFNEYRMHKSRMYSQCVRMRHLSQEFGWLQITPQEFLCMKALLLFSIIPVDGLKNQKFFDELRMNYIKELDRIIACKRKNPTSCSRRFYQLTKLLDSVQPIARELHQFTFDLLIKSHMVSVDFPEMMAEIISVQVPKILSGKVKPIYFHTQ

Progesterone receptor = target: T3, Progesterone receptor (Homo sapiens, UniProt P06401); test: Binding affinity to progesterone receptor
T3 sequence (P06401 whole entry): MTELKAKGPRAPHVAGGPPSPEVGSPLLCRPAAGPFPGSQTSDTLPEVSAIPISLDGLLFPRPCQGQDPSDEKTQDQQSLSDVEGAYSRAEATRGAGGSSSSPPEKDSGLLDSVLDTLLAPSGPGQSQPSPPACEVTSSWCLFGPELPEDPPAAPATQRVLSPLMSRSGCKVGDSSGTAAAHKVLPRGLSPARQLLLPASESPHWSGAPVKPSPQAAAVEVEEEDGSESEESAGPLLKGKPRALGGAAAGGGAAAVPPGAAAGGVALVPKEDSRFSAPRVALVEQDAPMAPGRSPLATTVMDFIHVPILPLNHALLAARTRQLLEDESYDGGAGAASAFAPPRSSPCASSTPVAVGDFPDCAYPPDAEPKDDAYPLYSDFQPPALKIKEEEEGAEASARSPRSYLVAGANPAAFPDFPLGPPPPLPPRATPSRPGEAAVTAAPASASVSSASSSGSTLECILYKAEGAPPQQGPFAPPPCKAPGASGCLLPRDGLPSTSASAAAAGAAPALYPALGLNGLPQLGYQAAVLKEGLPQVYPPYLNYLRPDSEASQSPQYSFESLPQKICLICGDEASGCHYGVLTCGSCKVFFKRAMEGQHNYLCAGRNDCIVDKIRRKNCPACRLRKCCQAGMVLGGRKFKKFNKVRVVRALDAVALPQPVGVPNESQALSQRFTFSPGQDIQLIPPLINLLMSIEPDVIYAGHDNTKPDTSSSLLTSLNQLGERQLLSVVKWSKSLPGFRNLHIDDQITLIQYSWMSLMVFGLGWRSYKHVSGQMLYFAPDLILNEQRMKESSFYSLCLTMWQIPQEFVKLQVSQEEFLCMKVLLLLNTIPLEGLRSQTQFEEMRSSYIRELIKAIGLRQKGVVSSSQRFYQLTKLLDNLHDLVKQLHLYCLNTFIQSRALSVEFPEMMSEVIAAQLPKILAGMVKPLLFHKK

[3] = target: T4, Mineralocorticoid receptor (Homo sapiens, UniProt P08235); test: Binding affinity to mineralocorticoid receptor
T4 sequence (P08235 whole entry): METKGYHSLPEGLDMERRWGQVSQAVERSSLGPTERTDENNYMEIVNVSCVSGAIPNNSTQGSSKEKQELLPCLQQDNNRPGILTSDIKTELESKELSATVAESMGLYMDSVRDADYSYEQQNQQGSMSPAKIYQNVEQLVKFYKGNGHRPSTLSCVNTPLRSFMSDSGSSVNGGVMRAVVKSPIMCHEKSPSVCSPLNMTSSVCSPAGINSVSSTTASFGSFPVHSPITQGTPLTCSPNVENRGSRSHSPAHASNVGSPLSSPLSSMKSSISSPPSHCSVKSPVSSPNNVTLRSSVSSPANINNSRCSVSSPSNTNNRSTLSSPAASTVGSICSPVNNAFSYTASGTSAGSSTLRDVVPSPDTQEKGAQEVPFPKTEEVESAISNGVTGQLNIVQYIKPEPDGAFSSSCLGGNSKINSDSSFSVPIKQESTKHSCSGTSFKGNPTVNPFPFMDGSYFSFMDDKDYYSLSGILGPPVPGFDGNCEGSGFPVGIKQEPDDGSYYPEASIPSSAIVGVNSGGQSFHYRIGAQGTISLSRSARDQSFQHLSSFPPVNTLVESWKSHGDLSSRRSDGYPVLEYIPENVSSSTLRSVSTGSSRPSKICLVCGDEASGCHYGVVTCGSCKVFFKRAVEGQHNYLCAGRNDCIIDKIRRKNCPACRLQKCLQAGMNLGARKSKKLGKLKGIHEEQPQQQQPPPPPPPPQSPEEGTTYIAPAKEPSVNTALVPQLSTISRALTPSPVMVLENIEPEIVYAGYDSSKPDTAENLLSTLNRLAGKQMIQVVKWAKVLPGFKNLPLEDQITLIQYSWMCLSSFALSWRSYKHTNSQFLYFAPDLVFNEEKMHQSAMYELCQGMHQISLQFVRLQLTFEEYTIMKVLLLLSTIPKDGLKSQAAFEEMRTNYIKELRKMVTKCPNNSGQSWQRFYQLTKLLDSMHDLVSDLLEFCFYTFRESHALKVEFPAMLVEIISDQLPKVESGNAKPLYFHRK

IC50 (Glucocorticoid receptor [1]): 3.16 nM
EC50 (Glucocorticoid receptor [2]): 2 nM
EC50 (Androgen receptor): > 10000 nM
EC50 (Progesterone receptor): > 10000 nM
EC50 [3]: > 10000 nM
Compound: CCN(C[C@](O)(CNC(=O)c1cnn(-c2ccc(F)cc2)c1N)C(F)(F)F)C(=O)c1c(Cl)cccc1Cl
